The source of these data is ChEMBL document CHEMBL1147294, “Plant antimutagenic agents, 5. Isolation and structure of two new isoflavones, fremontin and fremontone from Psorothamnus fremontii” (J Nat Prod, 1989).

Data set [1] relates to Salmonella typhimurium. Kind of data set: Antimutagenic activity in Salmonella Typhimurium T-100 assessed as inhibition of ethyl methanesulfonate-induced mutation at 37.5 ug/plate. In kind it is functional, Salmonella enterica subsp. enterica serovar Typhimurium.
Data set [2] concerns Salmonella typhimurium. The experiment in a line: Antimutagenic activity in Salmonella Typhimurium T-98 assessed as inhibition of 2-aminoanthracene-induced mutation at 75 ug/plate. In kind it is functional, Salmonella enterica subsp. enterica serovar Typhimurium.
Data set [3] deals with Salmonella typhimurium. Kind of data set: Antimutagenic activity in Salmonella Typhimurium T-100 assessed as inhibition of ethyl methanesulfonate-induced mutation at 300 ug/plate. Format: functional, Salmonella enterica subsp. enterica serovar Typhimurium.
In data set [4] the test system is Salmonella typhimurium. The experiment in a line: Toxicity to Salmonella Typhimurium at 0.3 to 0.075 mg/plate. In kind it is organism-based, Salmonella enterica subsp. enterica serovar Typhimurium. The note with it: in vivo.
For data set [5], the system named is Salmonella typhimurium. Kind of data set: Antimutagenic activity in Salmonella Typhimurium T-98 assessed as inhibition of 2-aminoanthracene-induced mutation at 37.5 ug/plate. In kind it is functional, Salmonella enterica subsp. enterica serovar Typhimurium.
Data set [6] relates to Salmonella typhimurium. Kind of data set: Antimutagenic activity in Salmonella Typhimurium T-100 assessed as inhibition of ethyl methanesulfonate-induced mutation at 75 ug/plate. Format: functional, Salmonella enterica subsp. enterica serovar Typhimurium.
Data set [7] relates to Salmonella typhimurium. Kind of data set: Antimutagenic activity in Salmonella Typhimurium T-98 assessed as inhibition of acetylaminofluorene-induced mutation at 300 ug/plate. In kind it is functional, Salmonella enterica subsp. enterica serovar Typhimurium.
The test system of data set [8] is Salmonella typhimurium. Kind of data set: Antimutagenic activity in Salmonella Typhimurium T-100 assessed as inhibition of ethyl methanesulfonate-induced mutation at 150 ug/plate. In kind it is functional, Salmonella enterica subsp. enterica serovar Typhimurium.
For data set [9], the system named is Salmonella typhimurium. Kind of data set: Antimutagenic activity in Salmonella Typhimurium T-98 assessed as inhibition of acetylaminofluorene-induced mutation at 37.5 ug/plate. Format: functional, Salmonella enterica subsp. enterica serovar Typhimurium.
For data set [10], the system named is Salmonella typhimurium. The experiment in a line: Antimutagenic activity in Salmonella Typhimurium assessed as inhibition of 2-aminoanthracene-induced mutation at 0.6 mg/plate. Format: functional, Salmonella enterica subsp. enterica serovar Typhimurium.
Data set [11] relates to Salmonella typhimurium. The experiment in a line: Antimutagenic activity in Salmonella Typhimurium T-98 assessed as inhibition of acetylaminofluorene-induced mutation at 150 ug/plate. In kind it is functional, Salmonella enterica subsp. enterica serovar Typhimurium.
The subject of data set [12] is Salmonella typhimurium. The experiment in a line: Antimutagenic activity in Salmonella Typhimurium T-98 assessed as inhibition of 2-aminoanthracene-induced mutation at 300 ug/plate. In kind it is functional, Salmonella enterica subsp. enterica serovar Typhimurium.
Data set [13] relates to Salmonella typhimurium. Kind of data set: Antimutagenic activity in Salmonella Typhimurium T-98 assessed as inhibition of 2-aminoanthracene-induced mutation at 150 ug/plate. In kind it is functional, Salmonella enterica subsp. enterica serovar Typhimurium.
Data set [14] relates to Salmonella typhimurium. The experiment in a line: Antimutagenic activity in Salmonella Typhimurium assessed as inhibition of 2-aminoanthracene-induced mutation at 0.3 mg/plate. In kind it is functional, Salmonella enterica subsp. enterica serovar Typhimurium.
The test system of data set [15] is Salmonella typhimurium. Kind of data set: Antimutagenic activity in Salmonella Typhimurium T-98 assessed as inhibition of acetylaminofluorene-induced mutation at 75 ug/plate. In kind it is functional, Salmonella enterica subsp. enterica serovar Typhimurium.
The test system of data set [16] is Salmonella typhimurium. Kind of data set: Toxicity to Salmonella Typhimurium at 0.6 mg/plate. Format: organism-based, Salmonella enterica subsp. enterica serovar Typhimurium. The note with it: in vivo.

For `C=CC(C)(C)c1cc(-c2coc3cc(O)cc(O)c3c2=O)c(O)cc1O` [FREMONTIN], the “inhibition (INH)” value in the data set with Salmonella typhimurium [1] was found to be 58%; in the data set with Salmonella typhimurium [2] it was 0%; in the data set with Salmonella typhimurium [3], 87%; in the data set on Salmonella typhimurium [5] it was 65%; with Salmonella typhimurium [6], 90%; in the data set with Salmonella typhimurium [7], 0%. Also, the “inhibition (INH)” value in the data set with Salmonella typhimurium [8] worked out at 81%; in the data set with Salmonella typhimurium [9] it was 0%; with Salmonella typhimurium [10] it was 92%; with Salmonella typhimurium [11], 0%; in the data set on Salmonella typhimurium [12] it was 93%; in the data set on Salmonella typhimurium [13] it was 24%. Further, the “inhibition (INH)” value in the data set with Salmonella typhimurium [14] was determined as 92%; in the data set with Salmonella typhimurium [15] it was 0%. Further, the Activity result with Salmonella typhimurium [4] is reported as “Non-toxic”.
For `C=CC(C)(C)c1cc(-c2coc3cc(O)cc(O)c3c2=O)c(O)c(CC=C(C)C)c1O` [FREMONTONE], the “inhibition (INH)” value in the data set on Salmonella typhimurium [1] came out at 63%; with Salmonella typhimurium [2], 78%; in the data set on Salmonella typhimurium [3] it was 94%; in the data set on Salmonella typhimurium [5] it was 89%; in the data set on Salmonella typhimurium [6] it was 81%; with Salmonella typhimurium [7] it was 70%. The “inhibition (INH)” value amounted to 86% with Salmonella typhimurium [8]; 0% in the data set on Salmonella typhimurium [9]; 27% with Salmonella typhimurium [11]; 93% in the data set with Salmonella typhimurium [12]; 17% with Salmonella typhimurium [13]; 3% with Salmonella typhimurium [15]. Also, the Activity result in the data set on Salmonella typhimurium [16] and in the data set with Salmonella typhimurium [4] was “Non-toxic” throughout.
